Test results reported in ChEMBL document CHEMBL1155693, “Structures of five components of the actinomycin Z complex from Streptomyces fradiae, two of which contain 4-chlorothreonine” (2000).
In brackets after ≈: the same amount, converted by molar mass. *1 amine or outer side, *2 acyl side, *3 side chain or, on linkers, in order; H or OH if unused. Where a SMILES comes first, the peptide text is derived from it. Bridges are numbered along the chain shown (N, C = ends). Roman numbers before positions name the chains, in order. [ ]: non-standard residue; d: D form. Actinocin(1to9) = Cc1c2oc3c(C)ccc(C(=O)[*:2])c3nc-2c(C(=O)[*:1])c(N)c1=O; NMeV = CN[C@H](C(=O)O)C(C)C; Sar = CNCC(=O)O

Legend:
Format in all cases: functional
[1] = Cytotoxicity against human HMO2 cells after 48 hrs by sulforhodamine assay; details: HMO2, 48 h; for CC50: read-out: LC50 (the source's name)
Bacillus subtilis = assay: Antibacterial activity against Bacillus subtilis ATCC 6051 after 18 hrs; details: ATCC 6051, 18 h
HepG2 = assay: Cytotoxicity against human HepG2 cells after 48 hrs by sulforhodamine assay; details: HepG2, 48 h
MCF7 = assay: Cytotoxicity against human MCF7 cells after 48 hrs by sulforhodamine assay; details: MCF7, 48 h; for CC50: read-out: LC50 (the source's name)

Compound	GI50 [1]	TGI [1]	CC50 [1]	MIC (Bacillus subtilis)	GI50 (HepG2)	LC50 (HepG2)	TGI (HepG2)	GI50 (MCF7)	TGI (MCF7)	CC50 (MCF7)
Cc1c2oc3c(C)ccc(C(=O)N[C@@H]4C(=O)N[C@H](C(C)C)C(=O)N5[C@H](C(=O)N(C)CC(=O)N(C)[C@@H](C(C)C)C(=O)O[C@@H]4C)[C@@H](O)C[C@@H]5C)c3nc-2c(C(=O)N[C@@H]2C(=O)N[C@H](C(C)C)C(=O)N3[C@@H](C)C(=O)C[C@H]3C(=O)N(C)CC(=O)N(C)[C@@H](C)C(=O)O[C@H]2CO)c(N)c1=O [ACTINOMYCIN Z1]	750 nM	5800 nM	> 50000 nM	12.5 µg/mL (≈ 9.6 µM)	950 nM	> 50000 nM	5500 nM	< 500 nM	> 50000 nM	> 50000 nM
Cc1c2oc3c(C)ccc(C(=O)N[C@@H]4C(=O)N[C@H](C(C)C)C(=O)N5[C@H](C(=O)N(C)CC(=O)N(C)[C@@H](C(C)C)C(=O)O[C@@H]4C)[C@@H](O)C[C@@H]5C)c3nc-2c(C(=O)N[C@@H]2C(=O)N[C@H](C(C)C)C(=O)N3[C@@H](C)C(=O)C[C@H]3C(=O)N(C)CC(=O)N(C)[C@@H](C)C(=O)O[C@H]2CCl)c(N)c1=O [ACTINOMYCIN Z3]	< 100 nM	< 100 nM	280 nM	0.2 µg/mL (≈ 0.152 µM)	< 100 nM	> 50000 nM	1400 nM	< 100 nM	< 100 nM	500 nM
Cc1c2oc3c(C)ccc(C(=O)N[C@@H]4C(=O)N[C@H](C(C)C)C(=O)N5[C@@H](C)CC[C@H]5C(=O)N(C)CC(=O)N(C)[C@@H](C(C)C)C(=O)O[C@@H]4C)c3nc-2c(C(=O)N[C@@H]2C(=O)N[C@H](C(C)C)C(=O)N3[C@@H](C)C(=O)C[C@H]3C(=O)N(C)CC(=O)N(C)[C@@H](C)C(=O)O[C@H]2CCl)c(N)c1=O [ACTINOMYCIN Z5]	< 100 nM	< 100 nM	500 nM	0.78 µg/mL (≈ 0.598 µM)	1500 nM	> 50000 nM	10000 nM	< 100 nM	120 nM	500 nM
Cc1c2oc3c(C)ccc(C(=O)N[C@@H]4C(=O)N[C@H](C(C)C)C(=O)N5CCC[C@H]5C(=O)N(C)CC(=O)N(C)[C@@H](C(C)C)C(=O)O[C@@H]4C)c3nc-2c(C(=O)N[C@@H]2C(=O)N[C@H](C(C)C)C(=O)N3CCC[C@H]3C(=O)N(C)CC(=O)N(C)[C@@H](C(C)C)C(=O)O[C@@H]2C)c(N)c1=O [DACTINOMYCIN] (I: T[dV]P[Sar][NMeV] / II: T[dV]P[Sar][NMeV]; ester I:1-I:C, II:1-II:C; linker I:N-II:N via Actinocin(1to9))	300 nM	800 nM	> 50000 nM	0.78 µg/mL (≈ 0.621 µM)	1000 nM	–	4000 nM	500 nM	2200 nM	> 50000 nM
